Values joined by “and” are separate entries in the source; they are usually repeats but may differ in a detail not shown here. Equal entries are not always repeated. Where two headings read alike, the source gives them in different places.
Columns and labels:
[1] = for Solubility as percentage of the solubility of potassium formate in water: 68-86° F. (20-30° C.); for Solubility (g K2O/100 g H2O): water
From the text: The table below lists the solubilities of various potassium fertilizers in water (as K2O) on a weight basis:

[2] = for Liquid Eluted after 60 min / Liquid Eluted after 120 min / Time (50 g of liquid, in min) / Liquid Eluted after 240 min: Ca formate 22 ppm by moles, average of two columns; for Liquid Eluted after 60 min / Liquid Eluted after 120 min / Time (50 g of liquid, in min): HCO2H 0.33% by weight
From the text: The objective was to investigate the behavior of different irrigation water treatments and determine the relative amounts of water that passed through the soil columns. The column retention times reflect the rate at which the liquid passes through the soil. Understanding these retention times provides insights about the transport and movement of irrigation water (and any fertilizers dissolved therein) through the soil, which has implications for the volume of water passing into and through the root zone, nutrient availability to crops, leaching of contaminants, and overall soil health.
The data in Table 1 is for the average of the two soil samples.

[3] = From the text: The irrigation water at the second farm was from a different source than the first farm.
[4] = first farm soil, duplicate columns A and B
[5] = ICP and flow injection (FIA) analyses of solutions passed through soil columns, second farm; conditions: single soil sample
From the text: FIA was used to determine the content of the listed anion (e.g., NO3, Cl, PO4, etc.). Results are presented from a single soil sample.

[6] = first pass, dry soil, second farm (FIG. 3)
[7] = 1st pass, Alternating = formic acid pass
[8] = 2nd pass, Alternating = calcium formate pass
[9] = 3rd pass, Alternating = formic acid pass
[10] = 4th pass, Alternating = calcium formate pass
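For Mn in solution passed through soil column (ICP) in this document: eluate from PVC columns holding 100 g of dry ground farm soil, analysed by ICP-OES for element content after the solution had drained through, irrigation water measured as received for reference.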

SMILES: [Cl-].[K+] [KCl, potassium chloride]
- Solubility as percentage of the solubility of potassium formate in water [1]: about 12%
- Solubility (g K2O/100 g H2O) ([1]; 32 ° F.): 18 g K2O/100 g H2O
- Solubility (g K2O/100 g H2O) ([1]; 68 ° F.): 22 g K2O/100 g H2O
- Solubility (g K2O/100 g H2O) ([1]; 86 ° F.): 24 g K2O/100 g H2O

SMILES: O=S([O-])([O-])=S.[K+].[K+] [K2SSO3, potassium thiosulfate]
- Solubility as percentage of the solubility of potassium formate in water [1]: about 40%
- Solubility (g K2O/100 g H2O) ([1]; 32 ° F.): 48 g K2O/100 g H2O
- Solubility (g K2O/100 g H2O) ([1]; 68 ° F.): 77 g K2O/100 g H2O
- Solubility (g K2O/100 g H2O) ([1]; 86 ° F.): 87 g K2O/100 g H2O

SMILES: O=C[O-].O=C[O-].[Ca+2] [Ca formate, calcium formate]
- Drainage Rate: Time (50 g), percentage relative to irrigation water ([2]; 1st pass, first farm soil): 66.7%
- Drainage Rate: liquid eluted at 60 mins, percentage relative to irrigation water ([2]; 1st pass, first farm soil): 180%
- Drainage Rate: liquid eluted at 120 mins, percentage relative to irrigation water ([2]; 1st pass, first farm soil): 152%
- Liquid Eluted after 60 min ([2]; 1st pass, first farm soil): 28.6 g
- Liquid Eluted after 120 min ([2]; 1st pass, first farm soil): 53.9 g
- Time (50 g of liquid, in min) ([2]; 1st pass, first farm soil): 120 min
- Drainage Rate: Time (50 g), percentage relative to irrigation water ([2]; 2nd pass, first farm soil): 66.7%
- Drainage Rate: liquid eluted at 60 mins, percentage relative to irrigation water ([2]; 2nd pass, first farm soil): 157%
- Drainage Rate: liquid eluted at 120 mins, percentage relative to irrigation water ([2]; 2nd pass, first farm soil): 150%
- Drainage Rate: liquid eluted at 240 min, percentage relative to irrigation water ([2]; 2nd pass, first farm soil): 137%
- Liquid Eluted after 60 min ([2]; 2nd pass, first farm soil): 33.3 g
- Liquid Eluted after 120 min ([2]; 2nd pass, first farm soil): 59.9 g
- Time (50 g of liquid, in min) ([2]; 2nd pass, first farm soil): 120 min
- Liquid Eluted after 240 min ([2]; 2nd pass, first farm soil): 98.5 g
- Drainage Rate: Time (50 g), percentage relative to irrigation water ([2]; 3rd pass, first farm soil): 83.3%
- Drainage Rate: liquid eluted at 60 mins, percentage relative to irrigation water ([2]; 3rd pass, first farm soil): 138%
- Drainage Rate: liquid eluted at 120 mins, percentage relative to irrigation water ([2]; 3rd pass, first farm soil): 135%
- Drainage Rate: liquid eluted at 240 min, percentage relative to irrigation water ([2]; 3rd pass, first farm soil): 131%
- Liquid Eluted after 60 min ([2]; 3rd pass, first farm soil): 26.4 g
- Liquid Eluted after 120 min ([2]; 3rd pass, first farm soil): 48.8 g
- Time (50 g of liquid, in min) ([2]; 3rd pass, first farm soil): 150 min
- Liquid Eluted after 240 min ([2]; 3rd pass, first farm soil): 86.7 g
- Drainage Rate: Time (50 g), percentage relative to irrigation water ([2]; 4th pass, first farm soil): 83.3%
- Drainage Rate: liquid eluted at 60 mins, percentage relative to irrigation water ([2]; 4th pass, first farm soil): 123%
- Drainage Rate: liquid eluted at 120 mins, percentage relative to irrigation water ([2]; 4th pass, first farm soil): 118%
- Drainage Rate: liquid eluted at 240 min, percentage relative to irrigation water ([2]; 4th pass, first farm soil): 110%
- Liquid Eluted after 60 min ([2]; 4th pass, first farm soil): 24.1 g
- Liquid Eluted after 120 min ([2]; 4th pass, first farm soil): 44.6 g
- Time (50 g of liquid, in min) ([2]; 4th pass, first farm soil): 150 min
- Liquid Eluted after 240 min ([2]; 4th pass, first farm soil): 75.0 g
- Liquid retained by the soil samples on average ([2]; first pass, dry soil, first farm, 100 ml added (FIG. 1)): about 36 ml
- Improvement in amount of liquid eluted compared to the irrigation water ([2]; fixed periods 60, 120 and 240 mins, first farm soil): 110-180%
- Liquid retained by the soil samples on average [3, 6]: 43 to 44 mL
- Time at which solution had completed passing through the soil column on average [3, 6]: about 240 minutes
- Time of first appearance of liquid from the columns on average [3, 6]: 20 to 30 min
- Amount of liquid passed through the columns compared with irrigation water at the same lengths of time ([3]; first pass, second farm, from 20-30 minutes up to 240 minutes): more than three times as much
- Time at which solution had completed passing through the soil column on average ([3]; second pass, wet/damp soil, second farm (FIG. 4)): about 390 minutes
- B in solution passed through soil column (ICP) ([4]; 1st pass): 4.35 ppm and 4.97 ppm
- Ca in solution passed through soil column (ICP) ([4]; 1st pass): 135.1 ppm and 142.4 ppm
- K in solution passed through soil column (ICP) ([4]; 1st pass): 10.81 ppm and 11.82 ppm
- Mg in solution passed through soil column (ICP) ([4]; 1st pass): 53.6 ppm and 56.4 ppm
- Mn in solution passed through soil column (ICP) ([4]; 1st pass): 1.95 ppm and 2.09 ppm
- Na in solution passed through soil column (ICP) ([4]; 1st pass): 82.3 ppm and 88.9 ppm
- P in solution passed through soil column (ICP) ([4]; 1st pass): 0.45 ppm and 0.36 ppm
- S in solution passed through soil column (ICP) ([4]; 1st pass): 99.1 ppm and 103.0 ppm
- Si in solution passed through soil column (ICP) ([4]; 1st pass): 26.5 ppm and 27.6 ppm
- B in solution passed through soil column (ICP) ([4]; 2nd pass): 2.41 ppm and 2.40 ppm
- Ca in solution passed through soil column (ICP) ([4]; 2nd pass): 26.6 ppm and 25.2 ppm
- K in solution passed through soil column (ICP) ([4]; 2nd pass): 5.69 ppm and 5.73 ppm
- Mg in solution passed through soil column (ICP) ([4]; 2nd pass): 10.4 ppm and 9.8 ppm
- Mn in solution passed through soil column (ICP) ([4]; 2nd pass): 0.19 ppm and 0.22 ppm
- Na in solution passed through soil column (ICP) ([4]; 2nd pass): 36.8 ppm and 38.2 ppm
- P in solution passed through soil column (ICP) ([4]; 2nd pass): 0.40 ppm and 0.41 ppm
- S in solution passed through soil column (ICP) ([4]; 2nd pass): 21.2 ppm and 19.6 ppm
- Si in solution passed through soil column (ICP) ([4]; 2nd pass): 25.2 ppm and 26.2 ppm
- B in solution passed through soil column (ICP) ([4]; 3rd pass): 1.74 ppm and 1.48 ppm
- Ca in solution passed through soil column (ICP) ([4]; 3rd pass): 21.1 ppm and 19.4 ppm
- K in solution passed through soil column (ICP) ([4]; 3rd pass): 6.01 ppm and 5.41 ppm
- Mg in solution passed through soil column (ICP) ([4]; 3rd pass): 8.2 ppm and 7.6 ppm
- Na in solution passed through soil column (ICP) ([4]; 3rd pass): 32.7 ppm and 31.1 ppm
- P in solution passed through soil column (ICP) ([4]; 3rd pass): 0.68 ppm and 0.58 ppm
- S in solution passed through soil column (ICP) ([4]; 3rd pass): 13.9 ppm and 13.0 ppm
- Si in solution passed through soil column (ICP) ([4]; 3rd pass): 28.4 ppm and 26.2 ppm
- B in solution passed through soil column (ICP) ([4]; 4th pass): 0.69 ppm and 0.73 ppm
- Ca in solution passed through soil column (ICP) ([4]; 4th pass): 15.0 ppm and 15.9 ppm
- K in solution passed through soil column (ICP) ([4]; 4th pass): 5.09 ppm and 5.06 ppm
- Mg in solution passed through soil column (ICP) ([4]; 4th pass): 5.9 ppm and 6.0 ppm
- Mn in solution passed through soil column (ICP) ([4]; 4th pass): 0.05 ppm and 0.04 ppm
- Na in solution passed through soil column (ICP) ([4]; 4th pass): 21.6 ppm and 22.9 ppm
- P in solution passed through soil column (ICP) ([4]; 4th pass): 0.56 ppm
- S in solution passed through soil column (ICP) ([4]; 4th pass): 5.3 ppm and 5.5 ppm
- Si in solution passed through soil column (ICP) ([4]; 4th pass): 22.3 ppm and 22.7 ppm
- B in solution passed through soil column (ICP) [5, 7]: 0.5 ppm
- Ca in solution passed through soil column (ICP) [5, 7]: 76.1 ppm
- Cl^− in solution passed through soil column (FIA) [5, 7]: 288.0 ppm
- K in solution passed through soil column (ICP) [5, 7]: 4.5 ppm
- Mg in solution passed through soil column (ICP) [5, 7]: 19.6 ppm
- NO3^− in solution passed through soil column (FIA) [5, 7]: 0.0 ppm
- Na in solution passed through soil column (ICP) [5, 7]: 169.0 ppm
- P in solution passed through soil column (ICP) [5, 7]: 1.0 ppm
- S in solution passed through soil column (ICP) [5, 7]: 51.4 ppm
- Si in solution passed through soil column (ICP) [5, 7]: 26.3 ppm
- B in solution passed through soil column (ICP) [5, 8]: 0.3 ppm
- Ca in solution passed through soil column (ICP) [5, 8]: 24.0 ppm
- Cl^− in solution passed through soil column (FIA) [5, 8]: 92.1 ppm
- K in solution passed through soil column (ICP) [5, 8]: 2.5 ppm
- Mg in solution passed through soil column (ICP) [5, 8]: 6.1 ppm
- NO3^− in solution passed through soil column (FIA) [5, 8]: 0.0 ppm
- Na in solution passed through soil column (ICP) [5, 8]: 110.4 ppm
- P in solution passed through soil column (ICP) [5, 8]: 1.1 ppm
- S in solution passed through soil column (ICP) [5, 8]: 14.8 ppm
- Si in solution passed through soil column (ICP) [5, 8]: 26.9 ppm
- B in solution passed through soil column (ICP) [5, 9]: 0.2 ppm
- Ca in solution passed through soil column (ICP) [5, 9]: 21.7 ppm
- Cl^− in solution passed through soil column (FIA) [5, 9]: 91.9 ppm
- K in solution passed through soil column (ICP) [5, 9]: 2.4 ppm
- Mg in solution passed through soil column (ICP) [5, 9]: 5.5 ppm
- NO3^− in solution passed through soil column (FIA) [5, 9]: 0.0 ppm
- Na in solution passed through soil column (ICP) [5, 9]: 96.4 ppm
- P in solution passed through soil column (ICP) [5, 9]: 1.0 ppm
- S in solution passed through soil column (ICP) [5, 9]: 10.3 ppm
- Si in solution passed through soil column (ICP) [5, 9]: 24.3 ppm
- B in solution passed through soil column (ICP) [5, 10]: 0.2 ppm
- Ca in solution passed through soil column (ICP) [5, 10]: 30.4 ppm
- Cl^− in solution passed through soil column (FIA) [5, 10]: 93.6 ppm
- K in solution passed through soil column (ICP) [5, 10]: 2.4 ppm
- Mg in solution passed through soil column (ICP) [5, 10]: 7.5 ppm
- NO3^− in solution passed through soil column (FIA) [5, 10]: 0.0 ppm
- Na in solution passed through soil column (ICP) [5, 10]: 95.4 ppm
- P in solution passed through soil column (ICP) [5, 10]: 0.9 ppm
- S in solution passed through soil column (ICP) [5, 10]: 10.1 ppm
- Si in solution passed through soil column (ICP) [5, 10]: 23.3 ppm

— patent US12686652B2, “Methods of increasing irrigation water and fertilizer delivery to soil using formic acid and formate salts, making a formate salt from carbon dioxide, and generating a carbon credit” (Deerpoint Group, Inc., priority 2023, dated 2026)
